The term IC50 denotes the concentration needed to halve the response being measured.

Consider 38 compounds from patent US20060234987A1, “Neuroprotective benzo 1 3 oxathiol 2 ones” (priority 2003, published 2006).

The first assay concerns SCG neurons. In words: Protection of SCG neurons from anti-NGF killing. Type of assay: cell-based, Sprague Dawley rats. Particulars: Rattus norvegicus, Neuron, 48 h, read-out: IC50, rescue from anti-NGF killing of cultured SCG neurons. The method, then:
Neurotrophins are critical to the growth, development, and survival of small fiber neurons of the PNS. SCG neurons are neurons of the PNS that undergo apoptosis upon NGF withdrawal. In a typical experiment SCG neurons are cultured in the presence of NGF, which induces survival and neurite out-growth. After 5 days the NGF is removed by either the addition of anti-NGF polyclonal antibody (Sigma) or by repeated washings (4 times) with NGF free media, resulting in the apoptosis of up to 90% of the neurons after 48 hours, as measured by MTS staining. The addition of selected compounds of Formula I to the final cellular media provides upwards of 100% protection, at drug concentrations ranging from 10 to 50 μM (see Example 62).
Protection of SCG neurons from anti-NGF killing. SCG neurons were isolated from day 1 neonatal Sprague Dawley rats, plated at a cell density of 5,000 cells/well, and incubated in Biowhittaker Ultraculture containing 1% Penstrep, 1% L-glutamine, 0.7% ARAC, 3% rat serum, and NGF (50 ng/mL, Calomone Labs), at 37° C., under a 5% CO2 atmosphere. After 4 days the cells were treated with anti-NGF antibody (Sigma). At this time compound was added and the cells were maintained serum and NGF free for 48 hours, at which time viability of the neurons was assessed using Alamar Blue (Medicorp) staining. Table 3 summarizes selected IC50 values from compounds tested using this protocol.
For the compound `COc1ccc(NC(=O)Oc2cc(Sc3ccc4ccccc4c3)c3oc(=O)sc3c2)cc1` [Compound 26, 5-(N-(4-methoxyphenyl)carbamoyloxy)-7-((2-naphthyl)sulfanyl)benzo[1,3]oxathiol-2-one], the IC50 was found to be 16 µM.

As for `Cc1cc(OC(=O)NC2CCCCC2)cc2sc(=O)oc12` [Compound 31, 5-(N-Cyclohexylcarbamoyloxy)-7-methylbenzo[1,3]oxathiol-2-one], the IC50 stood at 35 µM.

Consider `O=c1oc2c(-c3ccc(Cl)cc3Cl)cc(O)cc2s1` [Compound 41, 7-(2,4-dichlorophenyl)-5-hydroxybenzo[1,3]oxathiol-2-one], for which the IC50 came to 7 µM. Take `O=c1oc2c(-c3ccc(Br)cc3)cc(O)cc2s1` [Compound 44, 7-(4-bromophenyl)-5-hydroxybenzo[1,3]oxathiol-2-one]: the IC50 stood at 20 µM.

Still in this assay, the particulars now being: Rattus norvegicus, Neuron; anti-NGF antibody, 48 hours, Alamar Blue viability; read-out: IC50, rescue from anti-NGF killing of cultured SCG neurons.
For the compound `O=c1oc2c(Sc3cccc4ccccc34)cc(O)cc2s1` [Compound 22, 5-Hydroxy-7-((1-naphthyl)sulfanyl)benzo[1,3]oxathiol-2-one], the 50% inhibitory concentration (IC50) is > 30 µM. Regarding `O=C(Oc1cc(-c2ccccc2)c2oc(=O)sc2c1)c1sc2ccccc2c1Cl` [Compound 33, 5-(3-chlorobenzothiophen-2-ylcarbonyloxy)-7-phenylbenzo[1,3]oxathiol-2-one], the 50% inhibitory concentration (IC50) was > 30 µM.

For the compound `O=c1oc2c(-c3ccc(-c4ccccc4)cc3)cc(O)cc2s1` [Compound 54, 7-biphenyl-5-hydroxybenzo[1,3]oxathiol-2-one], the IC50 amounted to 23 µM. As for `CCNc1cc(C)cc2sc(=O)oc12` [Compound 56, 7-ethylamino-5-methylbenzo[1,3]oxathiol-2-one], the concentration for half-maximal inhibition (IC50) came to 40 µM. As for `O=c1oc2c(-c3cccc(Cl)c3)cc(O)cc2s1` [Compound 37, 7-(3-chlorophenyl)-5-hydroxybenzo[1,3]oxathiol-2-one], the IC50 is > 30 µM. Still for that read-out and setting: in the case of `Cc1cccc(C)c1-c1cc2oc(=O)sc2cc1O` [Compound 50, 6-(2,6-dimethylphenyl)-5-hydroxybenzo[1,3]oxathiol-2-one] it was 22 µM. The same measure, in the same setting: in the case of `O=c1oc2c([S+]([O-])c3ccc4ccccc4c3)cc(O)cc2s1` (stereo not shown) [Compound 24, 5-Hydroxy-7-((2-naphthyl)sulfinyl)benzo[1,3]oxathiol-2-one] it was > 30 µM. Regarding `CC(C)c1ccccc1Sc1cc(O)cc2sc(=O)oc12` [Compound 14, 5-hydroxy-7-((2-iso-Propylphenyl)sulfanyl)benzo[1,3]oxathiol-2-one], the IC50 is 30 µM.

`Cc1cccc(C)c1Sc1cc(O)cc2sc(=O)oc12` [Compound 13, 7-((2,6-Dimethylphenyl)sulfanyl)-5-hydroxybenzo[1,3]oxathiol-2-one]: the IC50 is > 30 µM. The same measure, in the same setting: to `CCc1ccccc1Sc1cc(O)cc2sc(=O)oc12` [Compound 12, 7-((2-Ethylphenyl)sulfanyl)-5-hydroxybenzo[1,3]oxathiol-2-one] belongs > 30 µM; to `O=c1oc2c(-c3ccc(Cl)c(Cl)c3)cc(O)cc2s1` [Compound 43, 7-(3,4-dichlorophenyl)-5-hydroxybenzo[1,3]oxathiol-2-one], 7 µM. In the case of `COc1ccc(-c2cc(O)cc3sc(=O)oc23)cc1` [Compound 53, 5-hydroxy-7-(4-methoxyphenyl)benzo[1,3]oxathiol-2-one], the IC50 was > 30 µM. Still for that read-out and setting: in the case of `O=c1oc2c(-c3cc(Cl)ccc3Cl)cc(O)cc2s1` [Compound 42, 7-(2,5-dichlorophenyl)-5-hydroxybenzo[1,3]oxathiol-2-one] it was 17 µM. The same measure, in the same setting: in the case of `CCSc1cc(O)cc2sc(=O)oc12` [Compound 5, 7-Ethylsulfanyl-5-hydroxybenzo[1,3]oxathiol-2-one] it was > 30 µM. Take `O=c1oc2c3c4c(cc2s1)CCCN4CCC3` [Compound 57]: the IC50 came out at 50 µM. Turning to `O=c1oc2c(-c3ccccc3Cl)cc(O)cc2s1` [Compound 36, 7-(2-chlorophenyl)-5-hydroxybenzo[1,3]oxathiol-2-one], the IC50 came out at 16 µM. Regarding `O=c1oc2ccc(O)c(Sc3nc4ccccc4s3)c2s1` [Compound 21, 4-((Benzothiazol-2-yl)sulfanyl)-5-hydroxybenzo[1,3]oxathiol-2-one], the IC50 was 50 µM. The same measure, in the same setting: to `O=c1oc2c(-c3ccc(Cl)cc3)cc(O)cc2s1` [Compound 39, 7-(4-chlorophenyl)-5-hydroxybenzo[1,3]oxathiol-2-one] belongs 30 µM; to `O=c1oc2c(Sc3ccccc3C(F)(F)F)cc(O)cc2s1` [Compound 18, 5-hydroxy-7-((2-Trifluoromethylphenyl)sulfanyl)benzo[1,3]oxathiol-2-one], > 30 µM; to `Cc1cccc(-c2cc(OC(=O)c3ccccc3Cl)cc3sc(=O)oc23)c1` [Compound 48, 5-(2-chlorophenylcarbonyloxy)-7-(3-methylphenyl)benzo[1,3]oxathiol-2-one], 28 µM. On the same count and under the same terms, to `CC(C)(C)c1ccc(Sc2cc(O)cc3sc(=O)oc23)cc1` [Compound 17, 7-((4-tert-Butylphenyl)sulfanyl)-5-hydroxybenzo[1,3]oxathiol-2-one] belongs 25 µM. Same read-out and setting: in the case of `O=c1oc2c(-c3cccc(I)c3)cc(O)cc2s1` [Compound 45, 5-hydroxy-7-(3-iodophenyl)benzo[1,3]oxathiol-2-one] it was 7 µM; in that of `O=c1oc2ccc(Nc3c(Cl)cc(Br)cc3Cl)cc2s1` [Compound 58, 5-(4-bromo-2,6-dichloroanalino)benzo[1,3]oxathiol-2-one], 50 µM.

Turning to `O=c1oc2c(Sc3ccccc3)cc(O)c(Sc3ccc4ccccc4c3)c2s1` [Compound 29, 5-hydroxy-4-(2-naphthylthio)-7-((phenyl)sulfanyl)benzo[1,3]oxathiol-2-one], the IC50 was > 30 µM.

Staying with this assay, now noted: anti-NGF antibody, 48 hours, Alamar Blue viability; read-out: IC50, rescue from anti-NGF killing of cultured SCG neurons.
Regarding `O=c1oc2c([S+]([O-])Cc3ccccc3)cc(O)cc2s1` (stereo not shown) [Compound 6], the IC50 was > 30 µM.

The same assay, now with this note: at 10 μM compound.
As to `CC(C)c1ccccc1Sc1cc2oc(=O)sc2cc1O` [Compound 15, 5-hydroxy-6-((2-iso-Propylphenyl)sulfanyl)benzo[1,3]oxathiol-2-one], the “rescue from anti-NGF killing, % at 10 μM” value stood at 40% at 10 μM.

The same assay, now with this note: at 30 μM compound.
Turning to `O=c1oc2c(-c3ccc(F)cc3)cc(O)cc2s1` [Compound 35, 7-(4-fluorophenyl)-5-hydroxybenzo[1,3]oxathiol-2-one], the “rescue from anti-NGF killing, % at 30 μM” value turned out to be 40% at 30 μM. Consider `O=c1oc2c(-c3ccccc3C(F)(F)F)cc(O)cc2s1` [Compound 51, 5-hydroxy-7-(2-trifluoromethylphenyl)benzo[1,3]oxathiol-2-one], for which the “rescue from anti-NGF killing, % at 30 μM” value came to 38% at 30 μM. On the same count and under the same terms, to `CC(C)c1ccc(Sc2cc(O)cc3sc(=O)oc23)cc1` [Compound 16, 7-(4-iso-Propylphenylthio)-5-hydroxybenzo[1,3]oxathiol-2-one] belongs 42% at 30 μM.

Still in this assay, the particulars now being: at 50 μM compound.
For the compound `Cc1cccc(C)c1-c1cc(O)cc2sc(=O)oc12` [Compound 49, 7-(2,6-dimethylphenyl)-5-hydroxybenzo[1,3]oxathiol-2-one], the “rescue from anti-NGF killing, % at 50 μM” value worked out at 40% at 50 μM.

`CCc1cccc(CC)c1Nc1ccc2oc(=O)sc2c1` [Compound 59, 6-(2,6-diethylanalino)benzo[1,3]oxathiol-2-one]: the “rescue from anti-NGF killing, % at 50 μM” value was 38% at 50 μM. Turning to `O=C(Oc1cc(-c2cccc(Cl)c2)c2oc(=O)sc2c1)c1ccccc1Cl` [Compound 38, 5-(2-chlorophenylcarbonyloxy)-7-(3-chlorophenyl)benzo[1,3]oxathiol-2-one], the “rescue from anti-NGF killing, % at 50 μM” value turned out to be 40% at 50 μM.

The next assay concerns SCG neurons. As to the kind of experiment: In vitro protection of SCG neurons from Taxol killing. Type of assay: cell-based, Sprague Dawley rats. To be noted: Rattus norvegicus, Neuron; Taxol 50 ng/mL, 48 hours, MTS viability; read-out: IC50, rescue from Taxol killing of SCG neurons. An excerpt:
Taxol™ is regularly used in the treatment of breast and other cancers. Taxol™ binds to the cyto-skeletal protein tubulin, thereby inhibiting normal microtubular […] and inducing cellular apoptosis. Despite its potency as an anti-tumour agent, Taxol™ is also toxic to neurons, inducing dose limiting peripheral neuropathies. The addition of Taxol™ to cultured SCG neurons induces the degradation or loss of upwards of 80% of the neurons. The addition of selected compounds of Formula I to the cellular media, concurrently with Taxol™, protects upwards of 100% of the neurons, at drug concentrations ranging from 3 to 50 μM (see Example 63).
In Vitro Protection of SCG neurons from Taxol killing. SCG neurons were isolated from day 1 neonatal Sprague Dawley rats, plated at a cell density of 10,000 cells/well, and incubated in Biowhittaker Ultraculture containing 1% Penstrep, 1% L-glutamine, 0.7% ARAC, 3% rat serum, and NGF (50 ng/mL, Calomone Labs) at 37° C., under a 5% CO2 atmosphere. After 5 days the cells were treated with compound and Taxol™ (50 ng/mL). Viability of neurons was assessed 48 hours later using MTS (Promega) staining. Table 4 summarizes selected IC50 values from compounds tested using this protocol. Also, see FIG. 1 for compound protection against Taxol killing.
As for `O=c1oc2c(Sc3cccc4ccccc34)cc(O)cc2s1` [Compound 22, 5-Hydroxy-7-((1-naphthyl)sulfanyl)benzo[1,3]oxathiol-2-one], the IC50 was 10 µM.

On to `COc1ccc(NC(=O)Oc2cc(Sc3ccc4ccccc4c3)c3oc(=O)sc3c2)cc1` [Compound 26, 5-(N-(4-methoxyphenyl)carbamoyloxy)-7-((2-naphthyl)sulfanyl)benzo[1,3]oxathiol-2-one], for which the IC50 stood at 7 µM. In the case of `O=c1oc2ccc(O)cc2s1` [Compound 1, 5-Hydroxybenzo[1,3]oxathiol-2-one], the IC50 was 25 µM. In the case of `O=c1oc2c(Cl)cc(O)c(Cl)c2s1` [Compound 3, 4,7-Dichloro-5-hydroxybenzo[1,3]oxathiol-2-one], the IC50 came to 10 µM.
